Where a name gives a salt, the structure may show the parent alone.

This data set is described as follows: in vitro. The following applies: rat, gh3-tre-luc cells.

Usually CC50 stands for the concentration at which the toxic effect on the cells reaches its halfway point. Read a high CC50 as better tolerance by the cells. Under “AC50 (uM) modified / 1000”, `CC(C)C1=CC2=CC[C@@H]3[C@](C)(CCC[C@@]3(C)C(=O)O)[C@H]2CC1` [Sodium abietate] registered a CC50 at 24 h of 74.3 µM.
Still for that read-out and setting: the same measure for `S=C=Nc1ccc(N=C=S)cc1` [Bitoscanate]: above 50 µM; for `CC(C)(C)OC=O` [tert-Butyl formate]: above 100 µM; for `Nc1cccc(Cl)c1` [3-Chloroaniline]: above 90 µM.
In turn, `Sc1ccccc1` [Benzenethiol] returned a CC50 at 24 h (AC50 (uM) modified / 1000) above 90 µM.
In turn, `CN1C(=O)/C(=N\NC(N)=S)c2ccccc21` [Methisazone] registered a CC50 at 24 h (AC50 (uM) modified / 1000) of 34.2 µM.
As for `Clc1ccc(-c2ccc(Cl)c(Cl)c2Cl)c(Cl)c1Cl` [Aroclor 1260], the CC50 at 24 h (AC50 (uM) modified / 1000) was above 90 µM.
As to `O=C(O)CCC(=O)O` [Butanedioic acid], the CC50 at 24 h (AC50 (uM) modified / 1000) was above 90 µM.
In turn, `N[C@@H]1CON=C1O` [Cycloserine] displayed a CC50 at 24 h (AC50 (uM) modified / 1000) above 50 µM.
`CCCc1ccc(O)c(OC)c1` [2-Methoxy-4-propylphenol] displayed a CC50 at 24 h (AC50 (uM) modified / 1000) above 90 µM.
Regarding `Brc1cc(Br)c(Oc2cc(Br)c(Br)cc2Br)cc1Br` [2,2',4,4',5,5'-Hexabromodiphenyl ether], the CC50 at 24 h (AC50 (uM) modified / 1000) is above 50 µM.
For the molecule `Cc1ccc(O)c(N)c1` [2-Amino-4-methylphenol], under “AC50 (uM) modified / 1000”, the CC50 at 24 h came to 33.5 µM.
Still for that read-out and setting: to `CCN1CCCC1CNC(=O)c1cc(S(=O)(=O)CC)c(N)cc1OC` (stereo not drawn) [Amisulpride] belongs above 50 µM; to `CCOC(=O)C(C)C(C)=O` (stereo not drawn) [Ethyl-2-methyl acetoacetate], above 90 µM.
Same read-out and setting: the same measure for `CC(C)(Oc1ccc(C2CC2(Cl)Cl)cc1)C(=O)O` (stereo not drawn) [Ciprofibrate]: above 90 µM.
`CN1CCC(=C2c3ccccc3C=Cc3ccccc32)CC1` [Cyproheptadine] showed a CC50 at 24 h (AC50 (uM) modified / 1000) of 12.2 µM.
`COC=O` [Methyl formate] displayed a CC50 at 24 h (AC50 (uM) modified / 1000) above 8 µM.
For `COC1=CC=C2[C@H]3Cc4ccc(OC)c5c4[C@@]2(CCN3C)[C@H]1O5` [Thebaine], the 50% cytotoxic concentration (CC50) at 24 h (AC50 (uM) modified / 1000, Tox21_110001=Tox21_111751, viability, 1 nM T3 present, 24 h) is above 20 µM and the CC50 at 24 h (AC50 (uM) modified / 1000, Tox21_110001=Tox21_112863, viability, 1 nM T3 present, 24 h) is above 90 µM.
For the setting “AC50 (uM) modified / 1000”, `Cc1ccc(C(C)NC(=O)[C@@H](NC(=O)OC(C)C)C(C)C)cc1` (stereo partly drawn) [Iprovalicarb] returned a CC50 at 24 h above 90 µM.
For `CCCCOC(=O)c1ccccc1C(=O)O` [Monobutyl phthalate], the CC50 at 24 h (AC50 (uM) modified / 1000) is above 90 µM.
In turn, `S=C=NCc1ccccc1` [Benzyl isothiocyanate] displayed a CC50 at 24 h (AC50 (uM) modified / 1000) above 90 µM.
The same measure, in the same setting: the same measure for `CN(C)c1ccc(C=O)cc1` [4-Dimethylaminobenzaldehyde]: above 90 µM.
Turning to `C=C(Cl)Cl` [1,1-Dichloroethylene], the CC50 at 24 h (AC50 (uM) modified / 1000, Tox21_110001=Tox21_200357, viability, 1 nM T3 present, 24 h) is above 100 µM.
Where the note is “AC50 (uM) modified / 1000”, `O=C(NNCNNC(=O)c1ccncc1)c1ccncc1` [Metazide] yielded a CC50 at 24 h above 50 µM.
In the case of `N#CCc1ccc(Cl)cc1Cl` [(2,4-Dichlorophenyl)acetonitrile], the CC50 at 24 h (AC50 (uM) modified / 1000) was above 90 µM.
On to `O=C1CCCc2c1cc1ccc3cccc4ccc2c1c34` [9,10-Dihydrobenzo[a]pyren-7(8H)-one], for which the CC50 at 24 h (AC50 (uM) modified / 1000) is above 90 µM.
The same measure, in the same setting: to `Sc1nnc(S)s1` [2,5-Dimercapto-1,3,4-thiadiazole] belongs above 90 µM; to `Brc1ccccc1` [Bromobenzene], above 90 µM.
As to `O=C1C(=O)c2cccc3cccc1c23` [Acenaphthenequinone], the CC50 at 24 h (AC50 (uM) modified / 1000, Tox21_110001=Tox21_202947, viability, 1 nM T3 present, 24 h) is above 90 µM.
As for `C[N+]1([O-])CCOCC1` [4-Methylmorpholine 4-oxide], the CC50 at 24 h (AC50 (uM) modified / 1000) is above 90 µM.
`O=Cc1c2ccccc2c(Cl)c2ccccc12` [10-Chloro-9-anthraldehyde] registered a CC50 at 24 h (AC50 (uM) modified / 1000) above 50 µM.
Regarding `C[C@@H](N)C(=O)c1ccccc1` [(R)-(+)-Cathinone hydrochloride], the CC50 at 24 h (AC50 (uM) modified / 1000) was above 100 µM.
In the case of `CCOC(=O)c1ccccc1O` [Ethyl salicylate], the CC50 at 24 h (AC50 (uM) modified / 1000) was above 50 µM.
As to `CC(=O)NNC(C)=O` [Diacetyl hydrazine], the CC50 at 24 h (AC50 (uM) modified / 1000) is above 90 µM.
Still for that read-out and setting: to `Clc1cc(C(Cl)(Cl)Cl)cnc1Cl` [2,3-Dichloro-5-(trichloromethyl)pyridine] belongs above 90 µM.
`c1ccc(C2CC2)c(OCC2=NCCN2)c1` [Cirazoline]: the CC50 at 24 h (AC50 (uM) modified / 1000) was above 50 µM.
In turn, `Nc1ccc(Cl)cc1` [4-Chloroaniline hydrochloride] yielded a CC50 at 24 h (AC50 (uM) modified / 1000, Tox21_110001=Tox21_201627, viability, 1 nM T3 present, 24 h) above 90 µM.
In the case of `Cc1ccc(S(=O)(=O)NCl)cc1` [Chloramine T hydrate (1:x)], the CC50 at 24 h (AC50 (uM) modified / 1000) was above 80 µM.
For the setting “AC50 (uM) modified / 1000”, `C=C(C)c1ccccc1` [alpha-Methylstyrene] returned a CC50 at 24 h above 90 µM.
Under “AC50 (uM) modified / 1000”, `CN(C)CCCN1c2ccccc2Sc2ccccc21` [Promazine hydrochloride] registered a cytotoxic concentration (CC50) at 24 h of 4.95 µM.
`c1ccc2c(c1)oc1ccccc12` [Dibenzofuran]: the CC50 at 24 h (AC50 (uM) modified / 1000) was above 90 µM.
The molecule `C1CCC(SSC2CCCCC2)CC1` [Dicyclohexyl disulfide] gave a CC50 at 24 h (AC50 (uM) modified / 1000) above 90 µM.
Under “AC50 (uM) modified / 1000”, `C=C(CC(=O)O)C(=O)O` [Methylenebutanedioic acid] showed a CC50 at 24 h above 90 µM.
For the molecule `CC1C(C)(C)C2=C(C(=O)CCC2)C1(C)C` (stereo not drawn) [Dihydro-1,1,2,3,3-pentamethyl-4(5H)-indanone], the CC50 at 24 h (AC50 (uM) modified / 1000) is above 90 µM.
Consider `O=C1Nc2ccc(Cl)cc2C(c2ccccc2Cl)=NC1O` (stereo not drawn) [Lorazepam], for which the CC50 at 24 h (AC50 (uM) modified / 1000) was above 50 µM.
`C=C[Si](OC(=C)C)(OC(=C)C)OC(=C)C` [Ethenyl[tris(prop-1-en-2-yloxy)]silane]: where the note is “AC50 (uM) modified / 1000”, the CC50 at 24 h was above 90 µM.
Same read-out and setting: the same measure for `CCCCCCCC/C=C\CCCCCCCC(=O)OCCOC(=O)CCCCCCC/C=C\CCCCCCCC` [Polyethylene glycol dioleate]: above 100 µM.
Take `Cc1nc2ccccn2c(=O)c1CCN1CCC(C(=O)c2ccc(F)cc2)CC1` [Pirenperone]: the CC50 at 24 h (AC50 (uM) modified / 1000) is above 50 µM.
Molecule `COc1ccc(N)cc1` [4-Methoxyaniline] had a CC50 at 24 h (AC50 (uM) modified / 1000, Tox21_110001=Tox21_303039, viability, 1 nM T3 present, 24 h) above 100 µM.
In turn, `CC1=C2C[C@H]3[C@@H](CC=C4C[C@@H](O)CC[C@@]43C)[C@@H]2CC[C@]12O[C@@H]1C[C@H](C)CN[C@H]1[C@H]2C` [Cyclopamine] gave a CC50 at 24 h (AC50 (uM) modified / 1000) of 5.73 µM.
`C/C=C(/C(=C/C)c1ccc(O)cc1)c1ccc(O)cc1` [Dienestrol] yielded a CC50 at 24 h (AC50 (uM) modified / 1000) of 16.1 µM.
Turning to `CC1CN1P(=O)(N1CC1C)N1CC1C` (stereo not drawn) [Metepa], the CC50 at 24 h (AC50 (uM) modified / 1000, Tox21_110001=Tox21_301807, viability, 1 nM T3 present, 24 h) was above 90 µM.
On to `O=C(Cl)C(Cl)(Cl)Cl` [Trichloroacetyl chloride], for which the CC50 at 24 h (AC50 (uM) modified / 1000) is above 90 µM.
`C[C@]1(Cn2ccnn2)[C@H](C(=O)O)N2C(=O)C[C@H]2S1(=O)=O` [Tazobactam sodium] registered a half-maximal cytotoxic concentration (CC50) at 24 h (AC50 (uM) modified / 1000) above 50 µM.
As to `COc1ccc(C)cc1[N+](=O)[O-]` [1-Methoxy-4-methyl-2-nitrobenzene], under “AC50 (uM) modified / 1000”, the CC50 at 24 h was above 90 µM.
For the setting “AC50 (uM) modified / 1000”, `NNC(=O)CP(=O)(c1ccccc1)c1ccccc1` [Fosenazide] gave a CC50 at 24 h above 50 µM.
For the setting “AC50 (uM) modified / 1000”, `O=CNNC=O` [1,2-Diformylhydrazine] came in with a CC50 at 24 h above 90 µM.
Still for that read-out and setting: to `CCOc1cccc(-n2cc(C(=O)N3CCN(c4cc(C(=O)O)c5ccccc5c4)CC3)nc2-c2ccc(C)cc2)c1` [PharmaGSID_47337] belongs 77.9 µM; to `Nc1nc(N)nc(NC2CC2)n1` [Cyromazine], above 90 µM; to `O=C(OCCCCCCOC(=O)c1ccccc1)c1ccccc1` [Hexane-1,6-diyl dibenzoate], above 90 µM.
On the same count and under the same terms, the same measure for `CCCCC(C#N)(Cn1cncn1)c1ccc(Cl)cc1` (stereo not drawn) [Myclobutanil]: above 90 µM; for `CCOC(=O)c1ccc(OC(=O)CCCCCNC(=N)N)cc1` [Gabexate mesilate]: above 20 µM.
Same read-out and setting: to `CCCC(=O)OCC` [Ethyl butyrate] belongs above 90 µM; to `CC1(C)O[C@@H]2C[C@H]3[C@@H]4C[C@H](F)C5=CC(=O)C=C[C@]5(C)[C@@]4(F)[C@@H](O)C[C@]3(C)[C@]2(C(=O)CO)O1` [Fluocinolone acetonide], above 50 µM.
In the case of `CC(C)(O)Cc1ccccc1` [2-Methyl-1-phenylpropan-2-ol], for the setting “AC50 (uM) modified / 1000”, the CC50 at 24 h was above 90 µM.
The same measure, in the same setting: to `Cc1[nH]c(=O)c(C#N)cc1-c1ccncc1` [Milrinone] belongs above 90 µM.
The same measure, in the same setting: to `CC(=O)Nc1ccc(S(=O)(=O)Cl)cc1` [4-(Acetylamino)benzenesulfonyl chloride] belongs above 90 µM; to `C=C(C)C(=O)OCCOc1ccccc1` [Ethylene glycol phenyl ether methacrylate], above 90 µM; to `CN(C)c1ccc(CCO)cc1` [p-N,N-Dimethylaminophenethanol], above 90 µM.
Consider `NCCCCCC(=O)O` [6-Aminocaproic acid], for which the CC50 at 24 h (AC50 (uM) modified / 1000) was above 20 µM.
The same measure, in the same setting: the same measure for `CC(C)(O)c1ccc(CNC(=O)c2cccnc2Oc2ccc(F)cc2)cc1` [CP-457677]: above 90 µM.
`ClC1(Cl)C2(Cl)C3(Cl)C4(Cl)C(Cl)(Cl)C5(Cl)C3(Cl)C1(Cl)C5(Cl)C24Cl` (stereo not drawn) [Mirex] came in with a CC50 at 24 h (AC50 (uM) modified / 1000, Tox21_110001=Tox21_300592, viability, 1 nM T3 present, 24 h) above 90 µM.
For `Cc1cscn1` [4-Methylthiazole], where the note is “AC50 (uM) modified / 1000”, the CC50 at 24 h is above 90 µM.
The molecule `CNC(C)Cc1ccc2c(c1)OCO2` (stereo not drawn) [1-(1,3-Benzodioxol-5-yl)-N-methylpropan-2-amine hydrochloride] came in with a CC50 at 24 h (AC50 (uM) modified / 1000, Tox21_110001=Tox21_112889, viability, 1 nM T3 present, 24 h) above 100 µM.
As to `Cc1cc(C)cc(OCC2CNC(=O)O2)c1` (stereo not drawn) [Metaxalone], for the setting “AC50 (uM) modified / 1000”, the CC50 at 24 h was above 50 µM.
With `CCNc1nc(NC(C)C)nc(SC)n1` [Ametryn], for the setting “AC50 (uM) modified / 1000”, the CC50 at 24 h is above 90 µM.
In the case of `NC1=NC(=O)C(c2ccccc2)O1` (stereo not drawn) [Pemoline], the CC50 at 24 h (AC50 (uM) modified / 1000, Tox21_110001=Tox21_112509, viability, 1 nM T3 present, 24 h) was above 50 µM.

The record behind these values is publication PMC6792352, “Limited Chemical Structural Diversity Found to Modulate Thyroid Hormone Receptor in the Tox21 Chemical Library” (Environmental Health Perspectives, 2019).
